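Grown in 96-well plates, cells were treated for 48 hours with each compound at five concentrations. Insufficient inhibition: endpoint recorded as highest concentration tested. GI50 is the concentration that inhibits growth by half.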 The source made the active and inactive calls. No stated cut-off is given here; in the data, active = GI50 up to about 1.1 µM and inactive = higher.
Tests used:
Assay in all cases: inhibition of tumour cell growth, NCI panel, 48 h
TK-10 = tested on: TK-10
NCI-H23 = tested on: NCI-H23
MOLT-4 = tested on: MOLT-4
UACC-62 = tested on: UACC-62
A549 = tested on: A549
UO-31 = tested on: UO-31
HL-60 = tested on: HL-60
COLO 205 = tested on: COLO 205
OVCAR-4 = tested on: OVCAR-4
SNB-19 = tested on: SNB-19
PC-3 = tested on: PC-3
DU-145 = tested on: DU-145
LOX IMVI = tested on: LOX IMVI
Malme-3M = tested on: Malme-3M
CAKI-1 = tested on: CAKI-1
Hs-578T = tested on: Hs-578T
A498 = tested on: A498
SF-295 = tested on: SF-295
SK-MEL-28 = tested on: SK-MEL-28
OVCAR-3 = tested on: OVCAR-3
SR = tested on: SR
HT-29 = tested on: HT-29
HOP-92 = tested on: HOP-92
U-251 = tested on: U-251
SF-539 = tested on: SF-539
K562 = tested on: K562
RPMI-8226 = tested on: RPMI-8226
IGROV-1 = tested on: IGROV-1
NCI-H522 = tested on: NCI-H522
RXF 393 = tested on: RXF 393
OVCAR-5 = tested on: OVCAR-5
MCF7 = tested on: MCF7
NCI-H460 = tested on: NCI-H460
EKVX = tested on: EKVX
786-0 = tested on: 786-0
MDA-N = tested on: MDA-N
MDA-MB-231 = tested on: MDA-MB-231
BT-549 = tested on: BT-549
HCT-15 = tested on: HCT-15
SF-268 = tested on: SF-268
HOP-62 = tested on: HOP-62
HCC 2998 = tested on: HCC 2998
OVCAR-8 = tested on: OVCAR-8
SK-MEL-5 = tested on: SK-MEL-5
M14 = tested on: M14
KM12 = tested on: KM12
MDA-MB-435 = tested on: MDA-MB-435
UACC-257 = tested on: UACC-257
ACHN = tested on: ACHN
HCT-116 = tested on: HCT-116
NCI-H226 = tested on: NCI-H226
SK-MEL-2 = tested on: SK-MEL-2
SN12C = tested on: SN12C
SW-620 = tested on: SW-620
NCI/ADR-RES = tested on: NCI/ADR-RES

With `COc1ccc(C#Cn2nnc3ccccc32)cc1` the GI50 (TK-10) was > 100 µM (inactive), the GI50 (NCI-H23) was > 100 µM (inactive) and the GI50 (MOLT-4) was 71.6 µM (inactive). The GI50 (UACC-62) was > 100 µM (inactive), the GI50 (A549) was > 100 µM (inactive) and the GI50 (UO-31) was 2.15 µM (inactive). For the same compound, the GI50 (HL-60) was 21.6 µM (inactive), the GI50 (COLO 205) was > 100 µM (inactive) and the GI50 (OVCAR-4) was > 100 µM (inactive). For the same compound, the GI50 (SNB-19) was > 100 µM (inactive), the GI50 (PC-3) was 86.7 µM (inactive) and the GI50 (DU-145) was 41 µM (inactive). The GI50 (LOX IMVI) was > 100 µM (inactive), the GI50 (Malme-3M) was > 100 µM (inactive) and the GI50 (CAKI-1) was 32.1 µM (inactive). For the same compound, the GI50 (Hs-578T) was > 100 µM (inactive), the GI50 (A498) was > 100 µM (inactive) and the GI50 (SF-295) was > 100 µM (inactive). For the same compound, the GI50 (SK-MEL-28) was > 100 µM (inactive), the GI50 (OVCAR-3) was 40.5 µM (inactive) and the GI50 (SR) was > 100 µM (inactive). The GI50 (HT-29) was > 100 µM (inactive), the GI50 (HOP-92) was > 100 µM (inactive) and the GI50 (U-251) was > 100 µM (inactive). The GI50 (SF-539) was > 100 µM (inactive), the GI50 (K562) was > 100 µM (inactive) and the GI50 (RPMI-8226) was 26.1 µM (inactive). The GI50 (IGROV-1) was > 100 µM (inactive), the GI50 (NCI-H522) was 48 µM (inactive) and the GI50 (RXF 393) was 97.7 µM (inactive). For the same compound, the GI50 (OVCAR-5) was > 100 µM (inactive), the GI50 (MCF7) was 41.8 µM (inactive) and the GI50 (NCI-H460) was > 100 µM (inactive). The GI50 (EKVX) was 32.8 µM (inactive), the GI50 (786-0) was > 100 µM (inactive) and the GI50 (MDA-N) was > 100 µM (inactive). For the same compound, the GI50 (MDA-MB-231) was > 100 µM (inactive), the GI50 (BT-549) was > 100 µM (inactive) and the GI50 (HCT-15) was over 100 µM. The GI50 (SF-268) was 91.2 µM (inactive), the GI50 (HOP-62) was > 100 µM (inactive) and the GI50 (HCC 2998) was 26.2 µM (inactive). For the same compound, the GI50 (OVCAR-8) was > 100 µM (inactive), the GI50 (SK-MEL-5) was > 100 µM (inactive) and the GI50 (M14) was > 100 µM (inactive). The GI50 (KM12) was 96.4 µM (inactive), the GI50 (MDA-MB-435) was > 100 µM (inactive) and the GI50 (UACC-257) was 50.4 µM (inactive). For the same compound, the GI50 (ACHN) was > 100 µM (inactive), the GI50 (HCT-116) was > 100 µM (inactive) and the GI50 (NCI-H226) was 64.7 µM (inactive). For the same compound, the GI50 (SK-MEL-2) was 92 µM (inactive), the GI50 (SN12C) was > 100 µM (inactive) and the GI50 (SW-620) was > 100 µM (inactive). For the same compound, the GI50 (NCI/ADR-RES) was > 100 µM (inactive).

Source: ChEMBL document CHEMBL1201862, “PubChem BioAssay data set” (2004)
